Laboratory results as given in patent US20030004172A1, “Fused pyrimidinone matrix metalloproteinase inhibitors” (priority 2001, published 2003).

target: MMP-13CD (catalytic domain of collagenase-3) (Homo sapiens, UniProt P45452); assay: Thiopeptolide substrate hydrolysis inhibition assay, MMP-13CD; type: biochemical; conditions: Table I; thiopeptolide substrate, HEPES pH 7.0, 22° C.; read-out: MMP-13CD IC50
Description: Thiopeptolide substrates show virtually no decomposition or hydrolysis at or below neutral pH in the absence of a matrix metalloproteinase enzyme.

Compound	IC50 [µM]
COC(=O)c1ccc(Cn2c(=O)c3cc(C(=O)NCc4ccc(OC)cc4)sc3n(C)c2=O)cc1C [Example 238, 4-[6-(4-Methoxy-benzylcarbamoyl)-1-methyl-2,4-dioxo-1,4-dihydro-2H-thieno[2,3-d]pyrimidin-3-ylmethyl]-2-methyl-benzoic acid methyl ester]	0.0555
COC(=O)c1ccc(Cn2c(=O)c3cc(C(=O)NCc4ccc(OC)cc4)sc3n(C)c2=O)cc1 [Example 239, 4-[6-(4-Methoxy-benzylcarbamoyl)-1-methyl-2,4-dioxo-1,4-dihydro-2H-thieno[2,3-d]pyrimidin-3-ylmethyl]-benzoic acid methyl ester]	0.0585
COC(=O)c1ccc(Cn2c(=O)c3cc(C(=O)NCc4cccc(OC)c4)sc3n(C)c2=O)cc1OC [Example 240, 2-Methoxy-4-[6-(3-methoxy-benzylcarbamoyl)-1-methyl-2,4-dioxo-1,4-dihydro-2H-thieno[2,3-d]pyrimidin-3-ylmethyl]-benzoic acid methyl ester]	0.18
COC(=O)c1ccc(Cn2c(=O)c3cc(C(=O)NCc4cccc(OC)c4)sc3n(C)c2=O)cc1C [Example 241, 4-[6-(3-Methoxy-benzylcarbamoyl)-1-methyl-2,4-dioxo-1,4-dihydro-2H-thieno[2,3-d]pyrimidin-3-ylmethyl]-2-methyl-benzoic acid methyl ester]	0.0195
COc1ccc(CNC(=O)c2cc3c(=O)n(CCC(=O)c4ccccc4)c(=O)n(C)c3s2)cc1 [Example 242, 1-Methyl-2,4-dioxo-3-(3-oxo-3-phenyl-propyl)-1,2,3,4-tetrahydro-thieno[2,3-d]pyrimidine-6-carboxylic acid 4-methoxy-benzylamide]	3
COc1cccc(CNC(=O)c2cc3c(=O)n(CCC(=O)c4ccccc4)c(=O)n(C)c3s2)c1 [Example 243, 1-Methyl-2,4-dioxo-3-(3-oxo-3-phenyl-propyl)-1,2,3,4-tetrahydro-thieno[2,3-d]pyrimidine-6-carboxylic acid 3-methoxy-benzylamide]	1.4
COc1cccc(CNC(=O)c2cc3c(=O)n(CCS(=O)(=O)c4cccc(C(F)(F)F)c4)c(=O)n(C)c3s2)c1 [Example 244, 1-Methyl-2,4-dioxo-3-[2-(3-trifluoromethyl-benzenesulfonyl)-ethyl]-1,2,3,4-tetrahydro-thieno[2,3-d]pyrimidine-6-carboxylic acid 3-methoxy-benzylamide]	1.25
COc1ccc(CNC(=O)c2cc3c(=O)n(CCS(=O)(=O)c4cccc(C(F)(F)F)c4)c(=O)n(C)c3s2)cc1 [Example 245, 1-Methyl-2,4-dioxo-3-[2-(3-trifluoromethyl-benzenesulfonyl)-ethyl]-1,2,3,4-tetrahydro-thieno[2,3-d]pyrimidine-6-carboxylic acid 4-methoxy-benzylamide]	30
COc1ccc(CNC(=O)c2cc3c(=O)n(CCS(=O)(=O)c4ccc(Cl)cc4)c(=O)n(C)c3s2)cc1 [Example 247, 3-[2-(4-Chloro-benzenesulfonyl)-ethyl]-1-methyl-2,4-dioxo-1,2,3,4-tetrahydro-thieno[2,3-d]pyrimidine-6-carboxylic acid 4-methoxy-benzylamide]	7.2
Cc1cc(Cn2c(=O)c3cc(C(N)=O)sc3n(C)c2=O)ccc1C(=O)O [Example 249]	7.8
Cc1cc(Cn2c(=O)c3cc(C(=O)NCc4cccc(O)c4)sc3n(C)c2=O)ccc1C(=O)O [Example 250, 4-[6-(3-hydroxy-benzylcarbamoyl)-1-methyl-2,4-dioxo-1,4-dihydro-2H-thieno[2,3-d]pyrimidin-3-ylmethyl]-2-methyl-benzoic acid]	0.00765
Cn1c(=O)n(Cc2ccc(C(=O)O)c(O)c2)c(=O)c2cc(C(N)=O)sc21 [Example 251]	0.655
COc1cccc(CNC(=O)c2cc3c(=O)n(CCN)c(=O)n(C)c3s2)c1 [Example 252, 3-(2-Aminoethyl)-1-methyl-2,4-dioxo-1,2,3,4-tetrahydro-thieno[2,3-d]pyrimidine-6-carboxylic acid 3-methoxy-benzylamide]	24
COc1ccc(CNC(=O)c2cc3c(=O)n(C(C)c4ccccc4)c(=O)n(C)c3s2)cc1 (centres unmarked) [Example 253]	0.81
COc1ccc(CNC(=O)c2cc3c(=O)n(CCC(=O)c4ccccc4)c(=O)n(C)c3s2)cc1 [Example 254]	1.5
COc1ccc(CNC(=O)c2cc3c(=O)n(CC[C@@H](C)CCC=C(C)C)c(=O)n(C)c3s2)cc1 [Example 255]	14
CCCCC(CC)Cn1c(=O)c2cc(C(=O)NCc3ccc(OC)cc3)sc2n(C)c1=O (centres unmarked) [Example 256]	27.5
COc1ccc(CNC(=O)c2cc3c(=O)n(CCCCCC#N)c(=O)n(C)c3s2)cc1 [Example 257]	1.5
C/C=C/Cn1c(=O)c2cc(C(=O)NCc3ccc(OC)cc3)sc2n(C)c1=O [Example 258]	0.27
COc1ccc(CNC(=O)c2cc3c(=O)n(CCc4cccc5ccccc45)c(=O)n(C)c3s2)cc1 [Example 259]	30

Compound	IC50 [µM]
CC/C=C/Cn1c(=O)c2cc(C(=O)NCc3ccc(OC)cc3)sc2n(C)c1=O [Example 260]	0.063
COc1ccc(CNC(=O)c2cc3c(=O)n(CCSc4ccccc4)c(=O)n(C)c3s2)cc1 [Example 261]	0.58
CCC(C)n1c(=O)c2cc(C(=O)NCc3ccc(OC)cc3)sc2n(C)c1=O (centres unmarked) [Example 262]	3.4
C=C(C)Cn1c(=O)c2cc(C(=O)NCc3ccc(OC)cc3)sc2n(C)c1=O [Example 263]	2.15
CCC(CC)n1c(=O)c2cc(C(=O)NCc3ccc(OC)cc3)sc2n(C)c1=O [Example 264]	7.4
CCC#CCn1c(=O)c2cc(C(=O)NCc3ccc(OC)cc3)sc2n(C)c1=O [Example 265]	0.038
COc1ccc(CNC(=O)c2cc3c(=O)n(CCS(=O)(=O)c4ccccc4)c(=O)n(C)c3s2)cc1 [Example 266]	4
COc1ccc(CNC(=O)c2cc3c(=O)n(CC=C(C)C)c(=O)n(C)c3s2)cc1 [Example 267]	1.1
COc1ccc(CNC(=O)c2cc3c(=O)n(CCS(=O)(=O)c4ccc(F)cc4)c(=O)n(C)c3s2)cc1 [Example 268]	3.6
COc1ccc(CNC(=O)c2cc3c(=O)n(CCS(=O)(=O)c4ccc(C)cc4)c(=O)n(C)c3s2)cc1 [Example 269]	26
COc1ccc(CNC(=O)c2cc3c(=O)n(CCC(=O)c4ccc(F)cc4)c(=O)n(C)c3s2)cc1 [Example 270]	1.8
COc1ccc(CNC(=O)c2cc3c(=O)n(CCC(=O)c4ccc(Cl)cc4)c(=O)n(C)c3s2)cc1 [Example 271]	5.9
COc1ccc(CNC(=O)c2cc3c(=O)n(CCNC(=O)c4ccccc4)c(=O)n(C)c3s2)cc1 [Example 272]	30
COc1ccc(CNC(=O)c2cc3c(=O)n(CCOc4ccc(Br)cc4)c(=O)n(C)c3s2)cc1 [Example 273]	0.059
COc1ccc(CNC(=O)c2cc3c(=O)n(Cc4ccc5nonc5c4)c(=O)n(C)c3s2)cc1 [Example 274]	0.018
COc1ccc(CNC(=O)c2cc3c(=O)n(CCOc4ccccc4)c(=O)n(C)c3s2)cc1 [Example 275]	0.036
COC(=O)Nc1cc(Cn2c(=O)c3cc(C(=O)NCc4ccc(OC)cc4)sc3n(C)c2=O)on1 [Example 276]	0.23
COc1ccc(CNC(=O)c2cc3c(=O)n(CC(=O)C(CC(=O)OC(C)(C)C)NC(=O)OCc4ccccc4)c(=O)n(C)c3s2)cc1 (centres unmarked) [Example 277]	20
COc1cccc(CNC(=O)c2cc3c(=O)n(CCSc4ccc(Cl)cc4)c(=O)n(C)c3s2)c1 [Example 278]	7.6
COc1cccc(CNC(=O)c2cc3c(=O)n(C(C)c4ccccc4)c(=O)n(C)c3s2)c1 (centres unmarked) [Example 279]	3.5

Compound	IC50 [µM]
COc1cccc(CNC(=O)c2cc3c(=O)n(CC[C@@H](C)CCC=C(C)C)c(=O)n(C)c3s2)c1 [Example 280]	17
CCCCC(CC)Cn1c(=O)c2cc(C(=O)NCc3cccc(OC)c3)sc2n(C)c1=O (centres unmarked) [Example 281]	8.9
COc1cccc(CNC(=O)c2cc3c(=O)n(CCS(=O)(=O)Cc4ccccc4)c(=O)n(C)c3s2)c1 [Example 282]	10
COc1cccc(CNC(=O)c2cc3c(=O)n(CCCCCC#N)c(=O)n(C)c3s2)c1 [Example 283]	1.7
C/C=C/Cn1c(=O)c2cc(C(=O)NCc3cccc(OC)c3)sc2n(C)c1=O [Example 284]	1.5
COc1cccc(CNC(=O)c2cc3c(=O)n(CCc4cccc5ccccc45)c(=O)n(C)c3s2)c1 [Example 285]	30
CC/C=C/Cn1c(=O)c2cc(C(=O)NCc3cccc(OC)c3)sc2n(C)c1=O [Example 286]	0.27
COc1cccc(CNC(=O)c2cc3c(=O)n(CCSc4ccccc4)c(=O)n(C)c3s2)c1 [Example 287]	1.9
CCC(C)n1c(=O)c2cc(C(=O)NCc3cccc(OC)c3)sc2n(C)c1=O (centres unmarked) [Example 288]	4.2
C=C(C)Cn1c(=O)c2cc(C(=O)NCc3cccc(OC)c3)sc2n(C)c1=O [Example 289]	2.7
CCC(CC)n1c(=O)c2cc(C(=O)NCc3cccc(OC)c3)sc2n(C)c1=O [Example 290]	15
CCC#CCn1c(=O)c2cc(C(=O)NCc3cccc(OC)c3)sc2n(C)c1=O [Example 291]	0.12
COc1cccc(CNC(=O)c2cc3c(=O)n(CC=C(C)C)c(=O)n(C)c3s2)c1 [Example 292]	10
COc1cccc(CNC(=O)c2cc3c(=O)n(CCS(=O)(=O)c4ccc(C)cc4)c(=O)n(C)c3s2)c1 [Example 293]	> 100
COc1cccc(CNC(=O)c2cc3c(=O)n(CCNC(=O)c4ccccc4)c(=O)n(C)c3s2)c1 [Example 294]	> 100
COc1cccc(CNC(=O)c2cc3c(=O)n(CCOc4ccc(Br)cc4)c(=O)n(C)c3s2)c1 [Example 295]	0.23
COc1cccc(CNC(=O)c2cc3c(=O)n(Cc4ccc5nonc5c4)c(=O)n(C)c3s2)c1 [Example 296]	0.0505
COc1cccc(CNC(=O)c2cc3c(=O)n(CCOc4ccccc4)c(=O)n(C)c3s2)c1 [Example 297]	0.057
COC(=O)Nc1cc(Cn2c(=O)c3cc(C(=O)NCc4cccc(OC)c4)sc3n(C)c2=O)on1 [Example 298]	0.49
